Assay results reported in publication PMC9929631 (The EMBO Journal, 2023).
Entries after “also recorded” stand apart in the source; their conditions may differ. Where two headings read alike, the source gives them in different places. Numbered stars: 1 amine (or outer) side, 2 acyl side, 3 side chain; on linkers, the order of the positions; unused ones are H or OH. Square brackets hold non-standard residues; d marks the D form. Ends that are not written are not given here. Peptide text beside a SMILES is read from it. * marks the point of attachment. X1 = N=c1ccc2c(-c3ccccc3C(=O)*)c3ccc(N)c(S(=O)(=O)O)c3oc-2c1S(=O)(=O)O; NMeGABA = CN(CCCC(=O)[*:2])[*:1]

What was measured:
[1] = tested on: DDB1‐DCAF12, DCAF12 Lys108Ala mutant; assay type: binding, human; details: TR-FRET titration, n = 3
[2] = tested on: DDB1‐DCAF12, DCAF12 His144Ala mutant; assay type: binding, human; details: TR-FRET titration, n = 3
[3] = tested on: DDB1‐DCAF12, DCAF12 Arg203Ala mutant; assay type: binding, human; details: TR-FRET titration, n = 3
[4] = tested on: DDB1‐DCAF12, DCAF12 Arg256Ala mutant; assay type: binding, human; details: TR-FRET titration, n = 3
[5] = tested on: DDB1‐DCAF12, DCAF12 Arg344Ala mutant; assay type: binding, human; details: TR-FRET titration, n = 3
DDB1‐DCAF12 [6] = molecular target: T1, DDB1‐DCAF12 (Homo sapiens, UniProt Q16531+Q5T6F0); assay: TR-FRET competition assay; assay type: binding
T1 sequence (Q5T6F0 whole entry): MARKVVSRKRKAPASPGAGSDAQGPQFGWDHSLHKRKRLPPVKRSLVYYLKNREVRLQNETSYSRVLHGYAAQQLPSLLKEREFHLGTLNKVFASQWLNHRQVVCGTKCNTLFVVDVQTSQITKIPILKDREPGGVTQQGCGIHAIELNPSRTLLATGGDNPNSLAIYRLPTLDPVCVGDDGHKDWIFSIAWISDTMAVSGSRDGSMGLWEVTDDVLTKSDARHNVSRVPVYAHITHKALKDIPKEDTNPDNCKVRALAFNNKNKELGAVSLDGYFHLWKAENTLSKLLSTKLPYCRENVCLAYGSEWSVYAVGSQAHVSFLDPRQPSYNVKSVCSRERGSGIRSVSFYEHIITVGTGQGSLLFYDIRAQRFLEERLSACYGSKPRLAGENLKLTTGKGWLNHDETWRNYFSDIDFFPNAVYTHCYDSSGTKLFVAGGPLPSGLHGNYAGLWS
T1 sequence (Q16531 whole entry partner): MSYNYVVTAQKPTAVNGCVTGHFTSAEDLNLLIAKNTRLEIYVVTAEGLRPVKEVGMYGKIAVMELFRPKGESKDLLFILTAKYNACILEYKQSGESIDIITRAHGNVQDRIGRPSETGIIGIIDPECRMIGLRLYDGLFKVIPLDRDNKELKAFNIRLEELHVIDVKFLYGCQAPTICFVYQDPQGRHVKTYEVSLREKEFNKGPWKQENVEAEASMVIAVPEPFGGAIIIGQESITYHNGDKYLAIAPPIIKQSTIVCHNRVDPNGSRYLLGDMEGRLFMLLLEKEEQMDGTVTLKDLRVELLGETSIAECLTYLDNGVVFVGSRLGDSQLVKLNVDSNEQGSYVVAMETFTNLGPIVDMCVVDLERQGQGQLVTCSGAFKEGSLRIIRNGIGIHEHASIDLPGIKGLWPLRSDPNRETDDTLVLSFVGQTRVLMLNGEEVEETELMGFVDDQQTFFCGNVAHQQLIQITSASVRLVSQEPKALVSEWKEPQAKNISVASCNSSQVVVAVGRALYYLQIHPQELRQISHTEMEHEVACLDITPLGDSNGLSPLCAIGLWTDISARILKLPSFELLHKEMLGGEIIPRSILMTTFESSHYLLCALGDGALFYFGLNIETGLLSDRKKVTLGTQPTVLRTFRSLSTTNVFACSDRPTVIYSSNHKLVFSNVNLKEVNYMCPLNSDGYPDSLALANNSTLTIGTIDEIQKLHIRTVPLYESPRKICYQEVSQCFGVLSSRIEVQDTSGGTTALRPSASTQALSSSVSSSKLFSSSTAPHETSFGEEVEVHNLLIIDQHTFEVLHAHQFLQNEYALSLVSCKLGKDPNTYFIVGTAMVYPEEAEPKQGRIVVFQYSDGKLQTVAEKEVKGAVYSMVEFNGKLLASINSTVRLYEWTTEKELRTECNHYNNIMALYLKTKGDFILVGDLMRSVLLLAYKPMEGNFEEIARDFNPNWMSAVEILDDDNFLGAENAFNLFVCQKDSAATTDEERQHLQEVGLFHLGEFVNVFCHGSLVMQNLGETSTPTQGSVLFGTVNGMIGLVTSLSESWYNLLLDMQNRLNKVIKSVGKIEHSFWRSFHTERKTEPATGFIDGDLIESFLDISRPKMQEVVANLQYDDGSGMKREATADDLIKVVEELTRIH

DDB1‐DCAF12 [7] = molecular target: T1, DDB1‐DCAF12; assay: In vitro pull-downs with strep; assay type: binding; details: strep(II)-tagged DDB1-DCAF12, untagged CCT5; Coomassie-stained SDS–PAGE
[8] = molecular target: biotinylated strep(II)-avi-DDB1-strep(II)-DCAF12 complex (wild type) (homo sapiens) (UniProt Q16531); assay: FRET or BRET
Sequence of biotinylated strep(II)-avi-DDB1-strep(II)-DCAF12 complex (wild type) (homo sapiens) (Q16531 whole entry, chain 1 of 2): as the sequence (Q16531 whole entry partner) above
Sequence of biotinylated strep(II)-avi-DDB1-strep(II)-DCAF12 complex (wild type) (homo sapiens) (Q5T6F0 whole entry, chain 2 of 2, further chain): as the sequence (Q5T6F0 whole entry) above

Sequence of CCT5_(10) peptide Glu532Ala (P48643 whole entry, looked up, change not shown, tested part not stated): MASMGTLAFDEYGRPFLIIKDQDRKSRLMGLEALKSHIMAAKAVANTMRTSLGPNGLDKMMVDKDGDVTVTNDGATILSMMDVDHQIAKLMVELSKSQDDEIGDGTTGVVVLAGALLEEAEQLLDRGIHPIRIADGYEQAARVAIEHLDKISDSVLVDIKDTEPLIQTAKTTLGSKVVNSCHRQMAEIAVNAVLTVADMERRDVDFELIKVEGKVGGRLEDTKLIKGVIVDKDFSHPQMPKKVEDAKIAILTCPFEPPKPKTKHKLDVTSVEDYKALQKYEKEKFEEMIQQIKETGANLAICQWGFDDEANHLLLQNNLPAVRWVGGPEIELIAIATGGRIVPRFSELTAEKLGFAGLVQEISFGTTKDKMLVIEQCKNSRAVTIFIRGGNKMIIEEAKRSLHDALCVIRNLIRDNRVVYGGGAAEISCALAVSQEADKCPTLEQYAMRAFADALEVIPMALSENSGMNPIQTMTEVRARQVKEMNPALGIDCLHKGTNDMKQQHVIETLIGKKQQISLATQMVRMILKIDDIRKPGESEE

CC[C@H](C)[C@H](NC(=O)[C@H](CCSC)NC(=O)[C@H](CCCNC(=N)N)NC(=O)[C@@H](NC(=O)[C@H](CCSC)NC(=O)[C@H](CCC(N)=O)NC(=O)CCCN(C)C(=O)c1ccccc1-c1c2ccc(=N)c(S(=O)(=O)O)c-2oc2c(S(=O)(=O)O)c(N)ccc12)C(C)C)C(=O)N[C@@H](CC(C)C)C(=O)N[C@@H](CCCCN)C(=O)N[C@H](C(=O)N[C@@H](CC(=O)O)C(=O)N[C@@H](CC(=O)O)C(=O)N[C@H](C(=O)N[C@@H](CCCNC(=N)N)C(=O)N[C@@H](CCCCN)C(=O)N1CCC[C@H]1C(=O)NCC(=O)N[C@@H](CCC(=O)O)C(=O)N[C@@H](CO)C(=O)N[C@@H](CCC(=O)O)C(=O)N[C@@H](CCC(=O)O)C(=O)O)[C@@H](C)CC)[C@@H](C)CC [^488CCT5_20] (X1-[NMeGABA]QMVRMILKIDDIRKPGESEE-OH; C-terminus assumed)
binding to DCAF12 Lys108Ala mutant (in words) [1]: failed to bind | binding to DCAF12 His144Ala mutant (in words) [2]: failed to bind | binding to DCAF12 Arg203Ala mutant (in words) [3]: abrogated substrate binding | binding to DCAF12 Arg256Ala mutant (in words) [4]: abolished; also recorded: failed to bind | binding to DCAF12 Arg344Ala mutant (in words) [5]: failed to bind

AIRKPGESEE [CCT510 D532A]
IC50 (DDB1‐DCAF12 [6]): 222 ± 25 nM

CCT5 (1–529): CCT5 mutant without the 12 C‐terminal residues
binding to DDB1-DCAF12 in pull-down (in words) (DDB1‐DCAF12 [7]): did not bind

CCT5: purified recombinant full‐length human CCT5, a subunit of the TRiC chaperonin, monomeric
binding to DDB1-DCAF12 in pull-down (in words) (DDB1‐DCAF12 [7]): efficiently bound

CCT5_(10) peptide Glu532Ala (from UniProt P48643 532-541)
IC50 [8]: 222 nM

DARKPGESEE [CCT510 I533A]
IC50 (DDB1‐DCAF12 [6]): 209 ± 25 nM

DIAKPGESEE [CCT510 R534A]
IC50 (DDB1‐DCAF12 [6]): 395 ± 68 nM

DIRAPGESEE [CCT510 K535A]
IC50 (DDB1‐DCAF12 [6]): 208 ± 26 nM

DIRKAGESEE [CCT510 P536A]
IC50 (DDB1‐DCAF12 [6]): 417 ± 53 nM

DIRKPGASEE [CCT510 E538A]
IC50 (DDB1‐DCAF12 [6]): 571 ± 103 nM

DIRKPGEAEE [CCT510 S539A]
IC50 (DDB1‐DCAF12 [6]): 125 ± 15 nM

DIRKPGESAE [CCT510 E540A]
IC50 (DDB1‐DCAF12 [6]; IC50, TR-FRET competition against TbDDB1-DCAF12^488, n = 3): > 50000 nM

DIRKPGESEE [CCT5_10]
IC50 (DDB1‐DCAF12 [6]): 363 ± 78 nM

EGWRLFKIDKEYLLKMATEE [SAT1_20]
IC50 (DDB1‐DCAF12 [6]): 291 ± 38 nM

TRiC: recombinant ~ 1 MDa human TRiC chaperonin complex of eight co‐expressed subunits
IC50 (DDB1‐DCAF12 [6]; TR-FRET competition against TbDDB1-DCAF12^488, n = 3): > 10000 nM
